Measured values as given in article PMC9229798, “Antioxidant Activity and Cytotoxicity of Aromatic Oligosulfides” (Molecules, 2022).

Columns and labels:
[1] = TBARS accumulation in liver homogenate (long-term LPO); design: species or system Russian sturgeon; details: 0.1 mM
Excerpt: The liver is the main organ that all metabolic products pass through. In addition, proteins of the antioxidant defense system are concentrated in the liver, which prevent the toxic effects of various ROS. The oxidation of liver lipids, which compose cell membranes, directly causes cell damage in vivo. Therefore, the liver is similar to biological systems and is considered as a classic model system for studying LPO processes in vitro and in vivo [56]. We studied the antioxidant potential of the compounds on a model system of a long-term process of lipid peroxidation in sturgeon liver. The assay allowed evaluation of the effect of the compounds under prolonged oxidative stress when possible an increase in peroxidation processes and a decrease of antioxidants concentration over time, and inversion of antioxidant/prooxidant properties in vitro [57].
The experiments in vitro were carried out using the liver of a Russian sturgeon raised in a unique aqua complex for the reproduction of valuable fish species of the Federal Research Center Southern Scientific Center of the Russian Academy of Sciences within the framework of State Assignment (Project No. 122020100328-1). All manipulations were conducted according to the international rules GLP (Good Laboratory Practice). The samples of fish liver were fixed in the cold.
The LPO intensity was estimated according to the accumulation of carbonyl products forming a colored complex with thiobarbituric acid (TBARS). A liver of Russian sturgeon (10 g) was homogenized in the cold, and the studied compounds were added at a concentration of 0.1 mM in EtOH to a solution of 1.2% potassium chloride (390 mL) precooled to 0–4 °C. The absence of any influence of EtOH on the LPO rate in the control was preliminarily established under these conditions. […] The supernatant was sampled, and the extinction of sample was measured using a SF-103 spectrophotometer at λ = 532 nm relative to the control sample. […]

HCT-116 = experiment: Annexin V/Dead Cell assay; format: cell-based, human
Excerpt: Apoptosis or programmed cell death is an important and active regulatory pathway of cell growth and proliferation. Cells respond to specific induction signals by initiating intracellular processes that result in characteristic physiological changes. Among these are externalization of phosphatidylserine (PS) to the cell surface, cleavage and degradation of specific cellular proteins, compaction and fragmentation of nuclear chromatin, and loss of membrane integrity. Phosphatidylserine (PS) is normally located in the inner part of the cell membrane. In the initial stage of apoptosis, the PS residues which translocated to the extracellular are detected by Annexin V, which is a calcium-dependent phospholipid-binding protein with a high affinity for PS. Annexin V flow cytometric assay was used to evaluate the compounds’ ability to induce apoptosis and influence on cell death. HCT-116 colon carcinoma and A-549 lung adenocarcinoma cells were treated by disulfides 2 and 3.
HCT-116 (colon carcinoma) and A-549 (lung carcinoma) cells (1 × 10^6) were seeded in a six-well plate and were incubated for 24 h. […] After incubation, the cells were harvested by trypsinization, precipitated by centrifugation (3000 rpm), washed with PBS, recentrifuged, and the buffer was removed. DMEM was added to achieve a cell concentration of 400–1000 cells/µL. The Muse Annexin V & Dead Cell Kit reagent (100 µL) was added to the cells and […] for 20 min at room temperature in the dark. The results were recorded on a Muse Cell Analyzer flow cytometer (Merck, Rahway, NJ, USA).

[2] = design: method as in doi:10.1016/j.arabjc.2021.103068; details: read-out: DPPH IC50; cited from earlier work

c1ccc(SSSc2ccccc2)cc1 [Compound 1, diphenyl trisulfide]
melting point: 58 to 60 °C | reduction of the level of TBARS ([1]; after 1 h of incubation): 64% | reduction of the level of TBARS ([1]; after 24 h): 48% | reduction of the level of TBARS ([1]; after 48 h): 37%

COc1ccc(SSc2ccc(OC)c(OC)c2)cc1OC [Compound 3, bis(3,4-dimethoxyphenyl) disulfide]
Early Apop. (HCT-116; HCT-116, 2 × IC50, 24 h): 9.1% | Late Apop./Dead (HCT-116; HCT-116, 2 × IC50, 24 h): 2.7% | total apoptotic cells (HCT-116; HCT-116, 2 × IC50, 24 h): 11.8% | Late Apop./Dead (HCT-116; HCT-116, 2 × IC50, 48 h): 17.7% | total apoptotic cells (HCT-116; HCT-116, 2 × IC50, 48 h): 44%

CC(C)(C)c1cc(SSc2cc(C(C)(C)C)c(O)c(C(C)(C)C)c2)cc(C(C)(C)C)c1O [Compound 6, bis(3,5-di-tert-butyl-4-hydroxyphenyl) disulfide]
IC50 [2]: 20.09 ± 0.02 µM
